Measurements reported in patent publication US20210300939A1, “Single Molecule Compounds Providing Multi-Target Inhibition of BTK and Other Proteins and Methods of Use Thereof” (SignalRx Pharmaceuticals, Inc., priority 2018, published 2021).

Assays:
[1] = target: T1, BRD4-1 (binding domain 1 of BRD4) (Homo sapiens, UniProt O60885); assay: BRD4 binding domain 1 inhibition (Reaction Biology Corp.); conditions: 10-point curve; read-out: Target IC50 BRD4-1
T1 construct: purchased Reaction Biology Corp., Malvern, Pa; (contract assay)
Method: (§1) The BTK, PI3K, and/or bromodomain inhibitory activity of a compound of the invention can be determined by methods known to the skilled artisan, or by procuring relevant analysis by a commercial vendor offering such services. […] In vivo, PI3K inhibition can be determined from target tissue biopsies by standard tissue processing in which cells are disrupted and Western Blot analysis is performed to determine the presence or absence of pAKT (substrate of PI3K) relative to a control sample. PI3K inhibition assays and BTK inhibition assays are known in the art and can be procured commercially through vendors such as Reaction Biology (Malvern, Pa.). The activity of a compound of the invention as an inhibitor of a bromodomain-containing protein, such as a BET protein, including BRD2, BRD3, BRD4, and/or BRDT, or an isoform or mutant thereof, may be determined in vitro, in vivo, or in a cell line. In vitro assays include assays that determine inhibition of bromodomain-containing proteins. Alternatively, inhibitor binding may be determined by running a competition experiment where a provided compound is incubated with a bromodomain-containing protein, such as a BET protein bound to known ligands, labeled or unlabeled. In vitro bromodomain inhibition assays can be performed using Alpha Screen Technology (Perkin Elmer Life and Analytical Sciences, Shelton, Conn.). In vivo bromodomain inhibition can be determined indirectly by evaluating the amount of a protein whose gene transcription is influenced or controlled by the bromodomain protein, for example, MYCN protein transcription is controlled by BRD4 (J. E. Delmore et al., Cell 2011, 146, 904-917; A. Puissant, Cancer Discov. 2013, 3, 308-323).
(§2) Compounds of the invention were analyzed for their ability to inhibit target proteins in vitro. PI3K alpha, gamma, and delta inhibition activity was determined by Thermo Fisher Scientific-Biosciences Life Sciences Solutions, Madison, Wis. The bromodomain protein inhibition (binding domain 1 and 2 of BRD4) was determined at Reaction Biology Corp., Malvern, Pa. BTK inhibition was performed by Reaction Biology Corp., Malvern, Pa.
(§3) Additional information regarding the testing procedures is available at each company's website on the internet. The IC50 data was calculated from a 10-point curve by the vendor and is compiled in ranges in the Table 6 below.

PI3K α = target: T2, PI3K α (Homo sapiens, UniProt P42336); assay: PI3K alpha inhibition (Thermo Fisher Scientific); assay type: biochemical; conditions: 10-point curve; read-out: Target IC50 PI3K α
T2 construct: purchased Thermo Fisher Scientific-Biosciences Life Sciences Solutions, Madison, Wis; (contract assay)
T2 sequence (P42336 whole entry): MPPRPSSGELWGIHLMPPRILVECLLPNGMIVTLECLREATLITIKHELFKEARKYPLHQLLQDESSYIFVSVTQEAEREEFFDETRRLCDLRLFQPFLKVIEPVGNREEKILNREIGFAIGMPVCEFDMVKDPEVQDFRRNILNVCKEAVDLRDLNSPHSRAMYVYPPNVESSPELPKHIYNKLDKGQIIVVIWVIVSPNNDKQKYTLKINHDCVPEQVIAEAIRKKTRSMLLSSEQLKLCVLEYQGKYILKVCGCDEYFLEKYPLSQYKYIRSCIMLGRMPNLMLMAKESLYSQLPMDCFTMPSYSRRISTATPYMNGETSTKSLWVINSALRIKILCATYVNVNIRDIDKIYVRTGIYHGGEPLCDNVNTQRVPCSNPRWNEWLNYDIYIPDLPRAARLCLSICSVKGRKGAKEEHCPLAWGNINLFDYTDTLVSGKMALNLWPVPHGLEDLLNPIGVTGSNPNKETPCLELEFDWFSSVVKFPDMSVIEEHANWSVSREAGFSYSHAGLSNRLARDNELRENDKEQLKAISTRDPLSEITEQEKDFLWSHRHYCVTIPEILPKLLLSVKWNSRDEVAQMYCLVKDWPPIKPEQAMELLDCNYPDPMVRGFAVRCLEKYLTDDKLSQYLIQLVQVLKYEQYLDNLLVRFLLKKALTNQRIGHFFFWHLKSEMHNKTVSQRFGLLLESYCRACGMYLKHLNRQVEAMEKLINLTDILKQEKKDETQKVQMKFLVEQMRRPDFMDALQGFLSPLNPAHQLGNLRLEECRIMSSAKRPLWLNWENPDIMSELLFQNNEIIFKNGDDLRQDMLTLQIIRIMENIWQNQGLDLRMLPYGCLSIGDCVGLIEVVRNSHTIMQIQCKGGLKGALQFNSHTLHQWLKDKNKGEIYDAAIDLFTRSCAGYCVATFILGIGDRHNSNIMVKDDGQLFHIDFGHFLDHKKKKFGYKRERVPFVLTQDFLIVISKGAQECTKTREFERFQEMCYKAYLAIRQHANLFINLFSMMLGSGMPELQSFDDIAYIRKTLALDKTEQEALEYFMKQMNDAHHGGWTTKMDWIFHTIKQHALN
T2 sequence (P27986 whole entry partner): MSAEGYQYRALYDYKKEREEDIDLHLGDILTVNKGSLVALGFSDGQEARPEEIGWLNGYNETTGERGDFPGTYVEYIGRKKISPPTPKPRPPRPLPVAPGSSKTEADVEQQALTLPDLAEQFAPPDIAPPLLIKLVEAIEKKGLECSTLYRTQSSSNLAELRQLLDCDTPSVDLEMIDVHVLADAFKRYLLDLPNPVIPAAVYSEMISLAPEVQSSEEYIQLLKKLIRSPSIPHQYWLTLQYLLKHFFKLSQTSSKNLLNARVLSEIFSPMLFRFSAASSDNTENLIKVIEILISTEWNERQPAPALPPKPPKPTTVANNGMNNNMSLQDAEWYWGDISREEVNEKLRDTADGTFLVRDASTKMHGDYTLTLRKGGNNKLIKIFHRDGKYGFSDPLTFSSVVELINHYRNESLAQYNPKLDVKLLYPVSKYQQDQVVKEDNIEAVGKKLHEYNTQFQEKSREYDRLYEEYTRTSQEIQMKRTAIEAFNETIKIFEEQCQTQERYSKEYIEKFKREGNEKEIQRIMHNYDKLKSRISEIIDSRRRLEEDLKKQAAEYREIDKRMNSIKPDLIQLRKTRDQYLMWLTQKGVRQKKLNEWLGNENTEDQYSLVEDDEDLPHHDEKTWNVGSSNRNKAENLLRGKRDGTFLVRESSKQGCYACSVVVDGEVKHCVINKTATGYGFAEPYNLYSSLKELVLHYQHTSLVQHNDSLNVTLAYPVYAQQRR
Method: as §1, §2, §3

PI3K δ = target: T3, PI3K δ (Homo sapiens, UniProt O00329); assay: PI3K delta inhibition (Thermo Fisher Scientific); assay type: biochemical; conditions: 10-point curve; read-out: Target IC50 PI3K δ
T3 construct: purchased Thermo Fisher Scientific-Biosciences Life Sciences Solutions, Madison, Wis; (contract assay)
T3 sequence (O00329 whole entry): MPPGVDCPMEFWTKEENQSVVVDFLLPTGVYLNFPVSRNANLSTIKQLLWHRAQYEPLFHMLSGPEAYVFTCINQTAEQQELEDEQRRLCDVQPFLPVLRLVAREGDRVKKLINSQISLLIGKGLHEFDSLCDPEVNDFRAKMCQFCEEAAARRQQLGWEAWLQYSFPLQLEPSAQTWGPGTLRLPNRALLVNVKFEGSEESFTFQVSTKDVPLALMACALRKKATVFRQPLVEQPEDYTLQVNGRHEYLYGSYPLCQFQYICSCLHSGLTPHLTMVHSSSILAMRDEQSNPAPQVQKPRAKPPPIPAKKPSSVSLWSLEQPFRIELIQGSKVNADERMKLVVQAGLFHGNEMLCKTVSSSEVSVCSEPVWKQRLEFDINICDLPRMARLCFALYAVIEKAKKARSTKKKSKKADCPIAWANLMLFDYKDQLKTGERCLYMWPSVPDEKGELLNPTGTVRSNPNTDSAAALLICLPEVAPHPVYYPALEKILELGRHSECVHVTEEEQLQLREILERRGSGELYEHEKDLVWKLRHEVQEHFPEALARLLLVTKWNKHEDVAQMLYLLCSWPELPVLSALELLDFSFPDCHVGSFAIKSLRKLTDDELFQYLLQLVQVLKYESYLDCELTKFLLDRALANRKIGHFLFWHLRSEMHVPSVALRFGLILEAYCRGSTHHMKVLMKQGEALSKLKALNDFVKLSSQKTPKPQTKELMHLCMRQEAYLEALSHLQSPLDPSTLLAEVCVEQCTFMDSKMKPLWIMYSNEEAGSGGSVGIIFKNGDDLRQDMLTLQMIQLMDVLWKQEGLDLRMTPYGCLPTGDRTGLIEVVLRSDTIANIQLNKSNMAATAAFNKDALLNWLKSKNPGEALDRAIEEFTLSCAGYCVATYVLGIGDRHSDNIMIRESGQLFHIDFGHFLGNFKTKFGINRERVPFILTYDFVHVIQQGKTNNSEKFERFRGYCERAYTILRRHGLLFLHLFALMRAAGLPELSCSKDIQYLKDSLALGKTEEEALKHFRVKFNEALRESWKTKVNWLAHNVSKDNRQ
T3 sequence (P27986 whole entry partner): as the sequence (P27986 whole entry partner) above
Method: as §1, §2, §3

BTK (WT) = target: T4, BTK (WT) (Homo sapiens, UniProt Q06187); assay: native BTK inhibition (Reaction Biology Corp.); assay type: biochemical; conditions: 10-point curve; read-out: Target IC50 BTK (WT)
T4 construct: purchased Reaction Biology Corp., Malvern, Pa; (contract assay)
T4 sequence (Q06187 whole entry): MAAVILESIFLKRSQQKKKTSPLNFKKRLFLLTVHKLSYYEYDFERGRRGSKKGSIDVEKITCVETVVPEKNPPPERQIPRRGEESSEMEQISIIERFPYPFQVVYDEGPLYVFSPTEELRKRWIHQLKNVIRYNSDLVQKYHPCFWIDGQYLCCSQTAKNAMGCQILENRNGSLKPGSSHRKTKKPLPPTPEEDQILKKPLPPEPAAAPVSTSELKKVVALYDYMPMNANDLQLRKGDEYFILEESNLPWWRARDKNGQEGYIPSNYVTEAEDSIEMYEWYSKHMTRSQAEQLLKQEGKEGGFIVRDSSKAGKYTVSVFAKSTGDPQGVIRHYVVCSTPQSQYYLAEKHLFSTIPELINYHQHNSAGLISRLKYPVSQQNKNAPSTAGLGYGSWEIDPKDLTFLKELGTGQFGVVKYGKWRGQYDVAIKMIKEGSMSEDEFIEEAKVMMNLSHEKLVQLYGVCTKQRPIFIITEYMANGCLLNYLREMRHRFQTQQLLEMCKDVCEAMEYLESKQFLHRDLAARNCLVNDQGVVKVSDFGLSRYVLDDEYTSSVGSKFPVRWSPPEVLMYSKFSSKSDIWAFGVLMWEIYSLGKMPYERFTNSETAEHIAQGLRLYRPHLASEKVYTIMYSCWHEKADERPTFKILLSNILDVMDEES
Method: as §2, §3

BTK (C481S) = target: T5, BTK (C481S) (Homo sapiens, UniProt Q06187, C481S); assay: BTK cysteine mutant C481S inhibition (Reaction Biology Corp.); assay type: biochemical; conditions: for Ratio C481S/WT: ratio of the BTK IC50 values, C481S over wild-type
T5 construct: purchased Reaction Biology Corp., Malvern, Pa; (contract assay)
T5 sequence (Q06187 whole entry C481S): as the sequence (Q06187 whole entry) above, with C481S counted along it
Method: as §2, §3

JeKo-1 cells [2] = assay: Cell viability (Celltiter-Glo), JeKo-1; assay type: cell-based; conditions: Homo sapiens, 48 hours
Method: (§4) The results of this experiment are shown in FIGS. 1A-1C, and in Table 7 below. Human mantle cell lymphoma cell lines were grown in 96 well plates with 5000 cells per well in RPMI 1640 media supplemented with 10% fetal bovine serum. Cells were treated for 48 hours with a concentration range of each compound from 50 nM to 50 uM. Cell viability a measure of viable cell numbers was determined using a Celltiter-Glo^R reagent for each concentration in order to construct an IC50 curve for each compound in each cell line.

Mino cells [3] = assay: Cell viability (Celltiter-Glo), Mino; assay type: cell-based; conditions: Homo sapiens, 48 hours
Method: as §4

Granta519 cells = assay: Cell viability (Celltiter-Glo), Granta519; assay type: cell-based; conditions: Homo sapiens, Granta-519, 48 hours
Method: as §4

[4] = tested on: Human mantle cell lymphoma cell lines; assay: Cell viability, mantle cell lymphoma cell lines (overall conclusion); assay type: cell-based; conditions: in vitro, 48 hours
Method: as §4

[5] = tested on: pBTK(Y223) in JeKo and Mino cells; assay: Western blot, phosphorylation of BTK at Tyr223 in anti-IgM stimulated cells; assay type: cell-based, human; conditions: for Suppression of pBTK(Y223): JeKo cells stimulated with F(ab′) and anti-human IgM, various concentrations, FIG. 3B; for Suppression of pBTK (Tyr223): anti-IgM stimulated JeKo and Mino cells, FIGS. 2A-2D
[6] = tested on: pAKT(S473) in JeKo and Mino cells; assay: Western blot, phosphorylation of AKT at Ser 473 in anti-IgM stimulated cells; assay type: cell-based, human; conditions: for Suppression of pAKT: JeKo cells stimulated with F(ab′) and anti-human IgM, various concentrations, FIG. 3B; for Suppression of pAKT (Ser 473): anti-IgM stimulated JeKo and Mino cells, FIGS. 2A-2D
Method: Phosphorylation of BTK at Tyr223 and AKT at Ser 473 were determined by Western blot analysis. The results are shown in FIGS. 2A-2B (JeKo cells) and FIGS. 2C-2D (Mino cells). Blots were reprobed for total BTK, AKT, and β-actin.

pBTK in JeKo cells = assay: Washout Western blot for pBTK in IgM-stimulated JeKo cells; assay type: cell-based, human; conditions: 5 μM or 1 μM for 3 hours, washed with PBS three times, 4 hours recovery
pAKT in JeKo cells = assay: Washout Western blot for pAKT in IgM-stimulated JeKo cells; assay type: cell-based, human; conditions: 5 μM or 1 μM for 3 hours, washed with PBS three times, 4 hours recovery
[7] = target: T6, BRD4-2 (binding domain 2 of BRD4) (Homo sapiens, UniProt O60885); assay: BRD4 binding domain 2 inhibition (Reaction Biology Corp.); conditions: 10-point curve; read-out: Target IC50 BRD4-2
T6 construct: purchased Reaction Biology Corp., Malvern, Pa; (contract assay)
Method: as §1, §2, §3

PI3K γ = target: T7, PI3K γ (Homo sapiens, UniProt P48736); assay: PI3K gamma inhibition (Thermo Fisher Scientific); assay type: biochemical; conditions: 10-point curve; read-out: Target IC50 PI3K γ
T7 construct: purchased Thermo Fisher Scientific-Biosciences Life Sciences Solutions, Madison, Wis; (contract assay)
T7 sequence (P48736 whole entry): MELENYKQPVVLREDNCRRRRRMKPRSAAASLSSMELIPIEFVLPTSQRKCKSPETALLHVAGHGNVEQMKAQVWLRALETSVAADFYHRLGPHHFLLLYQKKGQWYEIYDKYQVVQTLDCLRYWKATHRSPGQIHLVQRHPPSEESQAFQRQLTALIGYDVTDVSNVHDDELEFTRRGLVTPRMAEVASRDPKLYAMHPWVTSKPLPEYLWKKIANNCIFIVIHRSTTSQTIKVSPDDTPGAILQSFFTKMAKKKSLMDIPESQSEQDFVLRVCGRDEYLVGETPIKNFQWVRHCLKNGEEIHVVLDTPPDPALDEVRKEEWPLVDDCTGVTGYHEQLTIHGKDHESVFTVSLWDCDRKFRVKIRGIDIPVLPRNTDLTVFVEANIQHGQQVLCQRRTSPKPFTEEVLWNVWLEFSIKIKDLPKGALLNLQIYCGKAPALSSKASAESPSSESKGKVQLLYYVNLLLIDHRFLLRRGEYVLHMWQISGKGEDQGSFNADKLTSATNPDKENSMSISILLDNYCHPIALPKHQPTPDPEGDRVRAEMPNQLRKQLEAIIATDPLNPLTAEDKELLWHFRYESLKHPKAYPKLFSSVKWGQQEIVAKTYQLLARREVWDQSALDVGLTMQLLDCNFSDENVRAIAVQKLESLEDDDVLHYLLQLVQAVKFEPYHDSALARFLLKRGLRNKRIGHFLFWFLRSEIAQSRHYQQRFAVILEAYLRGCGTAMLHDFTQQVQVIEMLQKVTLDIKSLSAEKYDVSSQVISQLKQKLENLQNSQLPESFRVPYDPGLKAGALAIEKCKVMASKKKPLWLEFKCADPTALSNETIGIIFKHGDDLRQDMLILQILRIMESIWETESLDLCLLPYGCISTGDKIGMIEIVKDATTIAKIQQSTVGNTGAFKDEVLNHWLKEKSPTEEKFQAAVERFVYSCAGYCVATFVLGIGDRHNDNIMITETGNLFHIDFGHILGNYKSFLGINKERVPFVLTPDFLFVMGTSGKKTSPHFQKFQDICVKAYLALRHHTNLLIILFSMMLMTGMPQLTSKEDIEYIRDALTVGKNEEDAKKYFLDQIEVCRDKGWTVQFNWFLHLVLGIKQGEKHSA
Method: as §1, §2, §3

JeKo-1 cells [8] = assay: Percentage cells in apoptosis, JeKo-1; assay type: cell-based, human
From the text: (§5) Additionally apoptosis data was obtained in both JeKo and Mino cells for compound 7.

Mino cells [9] = assay: Percentage cells in apoptosis, Mino; assay type: cell-based, human; conditions: 24-hour
From the text: as §5

JeKo and Mino cells = assay: Apoptosis, both mantle cell lymphoma lines (overall statement); assay type: cell-based, human
From the text: as §5

[10] = tested on: pBTK(Y223) in JeKo-BTK-WT and JeKo-BTK-C481S cells; assay: Western blot for pBTK(Y223) in JeKo-BTK wild-type and JeKo-BTK-C481S cells; assay type: cell-based, human; conditions: 1 hour, different concentrations, FIGS. 6A and 6B
[11] = tested on: pAKT(S473) in JeKo-BTK-WT and JeKo-BTK-C481S cells; assay: Western blot for pAKT in JeKo-BTK wild-type and JeKo-BTK-C481S cells; assay type: cell-based, human; conditions: 1 hour, different concentrations, FIGS. 6A and 6B
[12] = tested on: pBTK in JeKo-BTK-C481S cells; assay: Washout immunoblot for pBTK in JeKo-BTK-C481S cells; assay type: cell-based, human; conditions: 3 hours, washed with PBS, 4 hours recovery, FIG. 6C
[13] = target: T8, fluorophore-tagged BRD4 fusion protein (Homo sapiens, UniProt O60885); assay: Chromatin-release assay in JeKo cells; assay type: cell-based; conditions: 1 μM, confocal microscopy
T8 construct: expressed in transfected cells; host or cells: JeKo cells
Method: A chromatin-release assay was performed on JeKo cells treated with 1 μM Compound 7.

JeKo cells = assay: Cell cycle analysis in JeKo cells; assay type: cell-based, human; conditions: MCL cells, 5 μM, FIG. 4
PI3 kinases = conditions: cited from earlier work
breast cancer stem cells = conditions: women with breast tumors with high levels of HER2 protein; decreased from 11%; cited from earlier work

Structure (SMILES) | IC50 [1] [nM] | IC50 (PI3K α) [nM] | IC50 (PI3K δ) [nM] | IC50 (BTK (WT)) [nM] | Ratio C481S/WT (BTK (C481S)) | IC50 (JeKo-1 cells [2]) [nM] | IC50 (Mino cells [3]) [nM] | IC50 (Granta519 cells) [nM] | Potency in reducing mantle cell lymphoma viability as compared to Ibrutinib [4] | Suppression of pBTK(Y223) [5] | Suppression of pBTK (Tyr223) [5] | Suppression of pAKT [6] | Suppression of pAKT (Ser 473) [6] | further results
C=CC(=O)Nc1cccc(-c2csc3c(=O)cc(N4CCOCC4)oc23)c1 [Compound 1, 1-[m-(5-Morpholino-7-oxo-4-oxa-1-thia-3-indenyl)phenylamino]-2-propen-1-one] | < 1000 | < 1000 | < 1000 | < 1000 | >81 | 1000 to 10000 | < 1000 | 1000 to 10000 | markedly more potent | suppressed | block the catalytic activity | suppressed | block the catalytic activity | pBTK inhibition after washing (pBTK in JeKo cells): not diminished by washing; pAKT after washing (pAKT in JeKo cells): restored after washing
C=CC(=O)N1CCOc2ccc(-c3csc4c(=O)cc(N5CCOCC5)oc34)cc21 [Compound 7, 1-[7-(5-Morpholino-7-oxo-4-oxa-1-thia-3-indenyl)-4-oxa-1-aza-2,3-dihydro-1H-naphth-1-yl]-2-propen-1-one] | < 1000 | < 1000 | < 1000 | < 1000 | 728 | < 1000 | < 1000 | 1000 to 10000 | markedly more potent | – | block the catalytic activity | – | block the catalytic activity | IC50 [7]: < 1000 nM; IC50 (PI3K γ): < 1000 nM; IC50 (BTK (C481S); 10-point curve, read-out: Target IC50 BTK (C481S)): 10000 to 30000 nM; Percentage cells in apoptosis (JeKo-1 cells [8]; JeKo-1, 24-hour, Early): + (less than 5%); Percentage cells in apoptosis (JeKo-1 cells [8]; JeKo-1, 24-hour, Late): +++ (between 10% and 30%); Percentage cells in apoptosis (JeKo-1 cells [8]; JeKo-1, 24-hour, Total): +++ (between 10% and 30%); Percentage cells in apoptosis (JeKo-1 cells [8]; JeKo-1, 48-hour, Early): +++ (between 10% and 30%); Percentage cells in apoptosis (JeKo-1 cells [8]; JeKo-1, 48-hour, Late): +++ (between 10% and 30%); Percentage cells in apoptosis (JeKo-1 cells [8]; JeKo-1, 48-hour, Total): ++++ (between 30% and 50%); Percentage cells in apoptosis (Mino cells [9]; Early): +++ (between 10% and 30%); Percentage cells in apoptosis (Mino cells [9]; Late): ++ (between 5% and 10%); Percentage cells in apoptosis (Mino cells [9]; Total): +++ (between 10% and 30%); Apoptosis compared with exposure to Ibrutinib (JeKo and Mino cells): much more apoptosis; Inhibition of pBTK [10]: inhibit pBTK; Inhibition of pAKT [11]: inhibits pAKT and in a dose dependent manner; pBTK suppression activity upon washout [12]: irreversible; Release of BRD4 from chromatin [13]: released a fluorophore-tagged BRD4 fusion protein from chromatin; Cell cycle effect (JeKo cells): Cell Cycle Arrest
C=CC(=O)Nc1ccc(-c2csc3c(=O)cc(N4CCOCC4)oc23)cc1 [Compound 13] | – | – | – | – | – | < 1000 | < 1000 | < 1000 | markedly more potent | suppressed | – | suppressed | – | –
O=c1cc(N2CCOCC2)oc2c(-c3ccccc3)cccc12 [LY294002, 2-(4-morpholinyl)-8-phenyl-4H-1-benzopyran-4-one] | – | – | – | – | – | – | – | – | – | – | – | – | – | IC50 (PI3 kinases): 1400 nM
CS(=O)(=O)CCNCc1ccc(-c2ccc3ncnc(Nc4ccc(OCc5cccc(F)c5)c(Cl)c4)c3c2)o1 [Lapatinib] | – | – | – | – | – | – | – | – | – | – | – | – | – | Breast cancer stem cells in biopsies (breast cancer stem cells): 5 % of cells
